Data on four compounds can be found in ChEMBL document CHEMBL2163216, “Design of fully synthetic, self-adjuvanting vaccine incorporating the tumor-associated carbohydrate Tn antigen and lipoamino acid-based Toll-like receptor 2 ligand” (J Med Chem, 2012).

The source made the active and inactive calls. The rule behind the calls is not given here. Where a SMILES comes first, the peptide text is derived from it. [ ]: non-standard residue; d: D form. The star is where a group is joined. ξ: configuration not given here. αGalNAc = CC(=O)N[C@@H]1[C@@H](O)[C@@H](O)[C@@H](CO)O[C@@H]1*; ξGly(tetradecyl) = CCCCCCCCCCCCCCC(N)C(=O)O

Experiment [1] concerns Mus musculus. The experiment in a line: Immunostimulatory activity in BALB/c (H-2d) mouse assessed as increase in IgG level at 30 ug, sc per week for 5 weeks measured on day 9 after last immunization by ELISA relative to untreated-control. Format: functional, organism-based.
Experiment [2] concerns the target Toll-like receptor 2 (Homo sapiens) (UniProt O60603). The experiment in a line: Activation of human TLR2 expressed in HEK293 cells at 100 to 300 nM after 4 hrs by luciferase reporter gene assay. Format: cell-based. A general note: In a reporter assay the amount or activity of a reporter protein is the signal.
Experiment [3] has as its system Mus musculus. Description: Immunostimulatory activity in BALB/c (H-2d) mouse assessed as increase in IgG level at 30 ug, sc per week for 5 weeks coadministered with complete freund's adjuvant measured on day 9 after last immunization by ELISA. Format: functional, organism-based. A general note: In an ELISA, binding on a coated surface is turned into a signal by an enzyme label.

Chain of Toll-like receptor 2 (Homo sapiens) (O60603 whole entry): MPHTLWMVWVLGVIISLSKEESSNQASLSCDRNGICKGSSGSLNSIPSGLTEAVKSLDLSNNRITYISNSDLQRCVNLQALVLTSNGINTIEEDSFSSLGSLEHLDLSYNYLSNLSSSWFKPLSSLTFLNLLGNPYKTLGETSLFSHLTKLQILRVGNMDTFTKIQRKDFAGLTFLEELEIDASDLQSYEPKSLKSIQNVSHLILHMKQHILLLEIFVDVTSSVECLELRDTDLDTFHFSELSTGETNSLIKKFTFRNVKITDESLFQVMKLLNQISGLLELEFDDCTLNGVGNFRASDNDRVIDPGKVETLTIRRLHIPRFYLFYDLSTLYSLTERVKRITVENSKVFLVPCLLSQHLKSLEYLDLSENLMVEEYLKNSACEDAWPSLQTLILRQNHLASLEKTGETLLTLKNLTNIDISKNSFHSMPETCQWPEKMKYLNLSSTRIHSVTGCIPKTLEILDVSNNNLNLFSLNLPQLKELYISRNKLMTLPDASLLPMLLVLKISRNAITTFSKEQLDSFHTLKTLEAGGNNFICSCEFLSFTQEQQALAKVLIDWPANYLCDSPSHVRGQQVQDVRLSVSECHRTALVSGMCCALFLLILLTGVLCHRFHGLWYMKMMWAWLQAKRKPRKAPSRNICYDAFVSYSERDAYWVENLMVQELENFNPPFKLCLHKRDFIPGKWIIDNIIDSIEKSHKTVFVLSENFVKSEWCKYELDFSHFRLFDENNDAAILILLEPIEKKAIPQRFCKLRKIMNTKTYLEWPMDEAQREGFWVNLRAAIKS

On to `CCCCCCCCCCCCCCC(NC(=O)C(CCCCCCCCCCCCCC)NC(=O)[C@H](CO)NC(=O)[C@H](CO)NC(=O)[C@H](CCCCN)NC(=O)[C@H](CO[C@H]1O[C@H](CO)[C@H](O)[C@H](O)[C@H]1NC(C)=O)NC(=O)[C@H](CO[C@H]1O[C@H](CO)[C@H](O)[C@H](O)[C@H]1NC(C)=O)NC(=O)[C@H](CO[C@H]1O[C@H](CO)[C@H](O)[C@H](O)[C@H]1NC(C)=O)NC(=O)[C@H](CCCCNC(=O)[C@H](CC(C)C)NC(=O)[C@H](CCCCN)NC(=O)[C@H](CCC(=O)O)NC(=O)[C@H](Cc1ccccc1)NC(=O)[C@H](CC(N)=O)NC(=O)[C@@H](NC(=O)[C@@H](NC(=O)[C@H](CO)NC(C)=O)[C@@H](C)CC)[C@@H](C)CC)NC(=O)[C@@H](NC(=O)[C@H](CC(=O)O)NC(=O)[C@H](CCCCN)NC(=O)[C@H](Cc1ccc(O)cc1)NC(=O)[C@@H](NC(=O)[C@@H](NC(=O)[C@H](CCCCN)NC(=O)[C@H](Cc1c[nH]c2ccccc12)NC(=O)[C@@H](NC(=O)[C@H](C)NC(=O)[C@H](Cc1ccccc1)NC(=O)[C@H](CC(C)C)NC(=O)[C@H](CCCCN)NC(C)=O)C(C)C)[C@@H](C)CC)[C@@H](C)O)[C@@H](C)O)C(N)=O` (stereo partly specified), for which, in the experiment with Mus musculus [1], the result was inactive.
Regarding `CCCCCCCCCCCCCCC(NC(=O)C(CCCCCCCCCCCCCC)NC(=O)[C@H](CO)NC(=O)[C@H](CO)NC(=O)[C@H](CCCCN)NC(=O)[C@H](CO[C@H]1O[C@H](CO)[C@H](O)[C@H](O)[C@H]1NC(C)=O)NC(C)=O)C(N)=O` (stereo partly specified) (Ac-S(αGalNAc)KSS[ξGly(tetradecyl)][ξGly(tetradecyl)]-NH2), the result in experiment [2] was Active.
As for `CCCCCCCCCCCCCCC(NC(=O)C(CCCCCCCCCCCCCC)NC(=O)[C@H](CO)NC(=O)[C@H](CO)NC(=O)[C@H](CCCCN)NC(=O)[C@H](CO[C@H]1O[C@H](CO)[C@H](O)[C@H](O)[C@H]1NC(C)=O)NC(=O)[C@H](CO[C@H]1O[C@H](CO)[C@H](O)[C@H](O)[C@H]1NC(C)=O)NC(=O)[C@H](CO[C@H]1O[C@H](CO)[C@H](O)[C@H](O)[C@H]1NC(C)=O)NC(=O)[C@@H](NC(=O)[C@H](CC(=O)O)NC(=O)[C@H](CCCCN)NC(=O)[C@H](Cc1ccc(O)cc1)NC(=O)[C@@H](NC(=O)[C@@H](NC(=O)[C@H](CCCCN)NC(=O)[C@H](Cc1c[nH]c2ccccc12)NC(=O)[C@@H](NC(=O)[C@H](C)NC(=O)[C@H](Cc1ccccc1)NC(=O)[C@H](CC(C)C)NC(=O)[C@H](CCCCN)NC(=O)[C@H](CC(C)C)NC(=O)[C@H](CCCCN)NC(=O)[C@H](CCC(=O)O)NC(=O)[C@H](Cc1ccccc1)NC(=O)[C@H](CC(N)=O)NC(=O)[C@@H](NC(=O)[C@@H](NC(=O)[C@H](CO)NC(C)=O)[C@@H](C)CC)[C@@H](C)CC)C(C)C)[C@@H](C)CC)[C@@H](C)O)[C@@H](C)O)C(N)=O` (stereo partly specified), the result with Mus musculus [3] was Active. Also, in the experiment with Mus musculus [1], the outcome was inactive.
On the same counts, the results for `CCCCCCCCCCCCCCC(NC(=O)C(CCCCCCCCCCCCCC)NC(=O)[C@H](CO)NC(=O)[C@H](CO)NC(=O)[C@H](CCCCN)NC(=O)[C@H](CO[C@H]1O[C@H](CO)[C@H](O)[C@H](O)[C@H]1NC(C)=O)NC(=O)[C@H](CO[C@H]1O[C@H](CO)[C@H](O)[C@H](O)[C@H]1NC(C)=O)NC(=O)[C@H](CO[C@H]1O[C@H](CO)[C@H](O)[C@H](O)[C@H]1NC(C)=O)NC(=O)[C@@H](NC(=O)[C@H](CC(=O)O)NC(=O)[C@H](CCCCN)NC(=O)[C@H](Cc1ccc(O)cc1)NC(=O)[C@@H](NC(=O)[C@@H](NC(=O)[C@H](CCCCN)NC(=O)[C@H](Cc1c[nH]c2ccccc12)NC(=O)[C@@H](NC(=O)[C@H](C)NC(=O)[C@H](Cc1ccccc1)NC(=O)[C@H](CC(C)C)NC(=O)[C@H](CCCCN)NC(C)=O)C(C)C)[C@@H](C)CC)[C@@H](C)O)[C@@H](C)O)C(N)=O` (stereo partly specified) are “Active” and “Active”.
